The numbers were not newly measured in patent US20220008494A1, “COMPOSITION FOR USE IN THE PREVENTION AND/OR SYMPTOMATIC TREATMENT OF IRRITABLE BOWEL SYNDROME” (priority 2018, published 2022), which cites them from elsewhere.

One data set relates to IBS patients. The settings on record: 300 mg per day as adjunct to standard therapies.
The subject of data set [1] is carrageenan-induced edema. Particulars: 10 mg/kg p.o.; from 1 to 24 h (p<0.01) compared to the control.
The subject of data set [2] is tail withdrawal reaction time. Particulars: rat, in vivo.
The mark [3] stands for this setting: 1 g/day butyric acid and inulin for 1 month, IBS-D compared to IBS-C patients.

For the compound `CCCC(=O)O` [butyric acid], in the data set on IBS patients (fourth week of treatment), the “frequency of abdominal pain associated with defecation” value was “significant decrease”. In addition, in the data set with IBS patients (twelfth week), the defecation-associated pain entry is reported as “also decrease”, the post-defecation stimulus result is “also decrease”, the post-prandial abdominal pain entry is “also decrease” and the spontaneous abdominal pain result is reported as “also decrease”. Further, the “condition of IBS-D patients” value with IBS-D patients (1 g/day butyric acid (4 x 250 mg capsules) and inulin for 1 month) is on record as “normalization”. Moreover, in the data set with IBS-D patients (setting [3]), the “frequency of diarrhea episodes” value is “significant reduction” and the stool consistency result was “significant increase”.
As for `O=C(O)Cc1ccccc1Nc1c(Cl)cccc1Cl` [Diclofenac, Diclofenac sodium], in data set [1], the “edema (paw volume, plethysmometrically)” value is given as “significant decrease”.
`CC(C)=CCN1CCC2(C)c3cc(O)ccc3CC1C2C` (stereo not shown) [Pentazocine]: in data set [2], the “reaction time (tail withdrawal)” value was “significant increase”.
